Assays:
SOS1-KRAS = SOS1-KRAS (Homo sapiens, UniProt P01116, G12D); assay: (§1) Inhibition of GST-tagged KRAS G12D mutant (2 to 169 residues) (unknown origin)/SOS1 catalytic domain (564 to 1069 residues) (unknown origin) protein-protein interaction preincubated with compound for 60 mins followed by SOS1 and GTP-DY-647P1 addition and measured after 30 mins by fluorescence based nucleotide exchange assay; type: protein-complex assay
[1] = as §1, with “G12V” for “G12D”, “90” for “30”; set-up: species or system Homo sapiens

Compound: C[C@@]1(O)CCCN(c2nc(OC[C@@]34CCCN3C[C@H](F)C4)nc(N3CC4(C3)SCc3sc(N)c(C#N)c34)n2)C1
- IC50 (SOS1-KRAS): < 10 nM
- IC50 [1]: < 10 nM

Compound: N#Cc1c(N)sc2c1C1(CC2)CN(c2nc(OC[C@@]34CCCN3C[C@H](F)C4)nc(N3CCCCC(O)C3)n2)C1 (some centres undefined)
- IC50 (SOS1-KRAS): 10 nM
- IC50 [1]: < 10 nM

Compound: C[C@@]1(O)CCCN(c2nc(OC[C@@]34CCCN3C[C@H](F)C4)nc(N3CC4(CCc5sc(N)c(C#N)c54)C3)n2)C1
- IC50 (SOS1-KRAS): < 10 nM
- IC50 [1]: < 10 nM

Compound: N#Cc1c(N)sc2c1C1(CC2)CN(c2nc(OCC3(CN4CCOCC4)CC3)nc(N3C[C@H]4CC[C@@H](C3)N4)n2)C1
- IC50 (SOS1-KRAS): < 10 nM
- IC50 [1]: 10 nM

Compound: CC1(O)CCN(c2nc(OCC3(CN4CCOCC4)CC3)nc(N3CC4(CCc5sc(N)c(C#N)c54)C3)n2)CC1
- IC50 (SOS1-KRAS): < 10 nM
- IC50 [1]: < 10 nM

Compound: N#Cc1c(N)sc2c1C1(CC2)CN(c2nc(OC[C@@]34CCCN3C[C@H](F)C4)nc(N3CCCC4(C3)NC(=O)NC4=O)n2)C1 (some centres undefined)
- IC50 (SOS1-KRAS): < 10 nM
- IC50 [1]: < 10 nM

Compound: C[C@@]1(O)C[C@@H](O)CN(c2nc(OC[C@@]34CCCN3C[C@H](F)C4)nc(N3CC4(CCc5sc(N)c(C#N)c54)C3)n2)C1
- IC50 (SOS1-KRAS): < 10 nM
- IC50 [1]: < 10 nM

Compound: CC1(O)CCCCN(c2nc(OC[C@@]34CCCN3C[C@H](F)C4)nc(N3CC4(CCc5sc(N)c(C#N)c54)C3)n2)C1 (some centres undefined)
- IC50 (SOS1-KRAS): 10 nM
- IC50 [1]: < 10 nM

Compound: C=C1CN2CCCC2(COc2nc(N3CC4(CCc5sc(N)c(C#N)c54)C3)nc(N3CCC[C@@](C)(O)C3)n2)C1 (some centres undefined)
- IC50 (SOS1-KRAS): < 10 nM
- IC50 [1]: < 10 nM

Compound: CN(C)CC1(COc2nc(N3CC4(CCc5sc(N)c(C#N)c54)C3)nc(N3CCC[C@@](C)(O)C3)n2)CC1(F)F (some centres undefined)
- IC50 (SOS1-KRAS): < 10 nM
- IC50 [1]: < 10 nM

Compound: N#Cc1c(N)sc2c1C1(CC2)CN(c2nc(OCC3(CN4CCOCC4)CC3)nc(N3CCCC4(C3)NC(=O)NC4=O)n2)C1 (centres undefined)
- IC50 (SOS1-KRAS): < 10 nM
- IC50 [1]: < 10 nM

Compound: N#Cc1c(N)sc2c1C1(CC2)CN(c2nc(OC[C@@]34CCCN3C[C@H](F)C4)nc(N3CCCC(C#N)CC3)n2)C1 (some centres undefined)
- IC50 (SOS1-KRAS): 10 nM
- IC50 [1]: < 10 nM
